Measured values published in ChEMBL document CHEMBL3217477, “Synthesis and biological evaluation of substituted - and -2,3-dihydrofuran naphthoquinones as potent anticandidal agents” (Medchemcomm, 2010).
≈ marks a conversion by molar mass, not a printed value.

Key:
Candida albicans [1] = assay: Antifungal activity against Candida albicans assessed as growth inhibition at 250 ug/mL after 24 hrs by hole plate diffusion method; format: functional; details: read-out: IZ
Candida tropicalis [2] = assay: Antifungal activity against Candida tropicalis assessed as growth inhibition at 250 ug/mL after 24 hrs by hole plate diffusion method; format: functional; details: read-out: IZ
Kluyveromyces marxianus [3] = assay: Antifungal activity against Candida kefyr assessed as growth inhibition at 250 ug/mL after 24 hrs by hole plate diffusion method; format: functional; details: read-out: IZ
Candida parapsilosis [4] = assay: Antifungal activity against Candida parapsilosis assessed as growth inhibition at 250 ug/mL after 24 hrs by hole plate diffusion method; format: functional; details: Lodderomyces parapsilosis, read-out: IZ
Pichia kudriavzevii [5] = assay: Antifungal activity against Candida krusei assessed as growth inhibition at 250 ug/mL after 24 hrs by hole plate diffusion method; format: functional; details: read-out: IZ
Candida dubliniensis [6] = assay: Antifungal activity against Candida dubliniensis assessed as growth inhibition at 250 ug/mL after 24 hrs by hole plate diffusion method; format: functional; details: read-out: IZ
Candida albicans [7] = assay: Antifungal activity against Candida albicans assessed as growth inhibition after 24 hrs by microbroth dilution method; format: functional
Candida tropicalis [8] = assay: Antifungal activity against Candida tropicalis assessed as growth inhibition after 24 hrs by microbroth dilution method; format: functional
Kluyveromyces marxianus [9] = assay: Antifungal activity against Candida kefyr assessed as growth inhibition after 24 hrs by microbroth dilution method; format: functional
Candida parapsilosis [10] = assay: Antifungal activity against Candida parapsilosis assessed as growth inhibition after 24 hrs by microbroth dilution method; format: functional; details: Lodderomyces parapsilosis
Pichia kudriavzevii [11] = assay: Antifungal activity against Candida krusei assessed as growth inhibition after 24 hrs by microbroth dilution method; format: functional
Candida dubliniensis [12] = assay: Antifungal activity against Candida dubliniensis assessed as growth inhibition after 24 hrs by microbroth dilution method; format: functional
Candida albicans [13] = assay: Antifungal activity against Candida albicans ATCC 90028 assessed as growth inhibition after 24 hrs by microbroth dilution method; format: functional; details: ATCC 90028, 24 h
[14] = Hemolytic activity in Swiss mouse erythrocytes at 50 ug/mL after 1 hr by spectrophotometric analysis relative to control; format: ADME, cell-based, Erythrocyte; details: read-out: Activity
[15] = Cytotoxicity against mouse NIH/3T3 cells assessed as dead cells at 12.5 ug/mL after 72 hrs by Alamar Blue assay relative to control; format: cell-based; details: nih3t3, 72 h

Compound	zone of inhibition at 250 µg/mL (Candida albicans [1])	zone of inhibition at 250 µg/mL (Candida tropicalis [2])	zone of inhibition at 250 µg/mL (Kluyveromyces marxianus [3])	zone of inhibition at 250 µg/mL (Candida parapsilosis [4])	zone of inhibition at 250 µg/mL (Pichia kudriavzevii [5])	zone of inhibition at 250 µg/mL (Candida dubliniensis [6])	MIC (Candida albicans [7])	MIC (Candida tropicalis [8])	MIC (Kluyveromyces marxianus [9])	MIC (Candida parapsilosis [10])	MIC (Pichia kudriavzevii [11])	MIC (Candida dubliniensis [12])	MIC (Candida albicans [13])	hemolysis at 1 h, 50 ug/mL [14]	mortality [15]
O=C1C2=C(OC(c3ccccc3)C2)C(=O)c2ccccc21 (stereo not given)	17 mm	7.7 mm	1.96 mm	6.88 mm	8.29 mm	4.3 mm	11.3 µM (≈ 3.12 µg/mL)	45.2 µM (≈ 12.5 µg/mL)	90.5 µM (≈ 25 µg/mL)	90.5 µM (≈ 25 µg/mL)	90.5 µM (≈ 25 µg/mL)	14.9 µM (≈ 4.12 µg/mL)	90.5 µM (≈ 25 µg/mL)	-1.44%	0%
CC1(c2ccccc2)CC2=C(O1)C(=O)c1ccccc1C2=O (stereo not given)	16.1 mm	3.83 mm	7.42 mm	0 mm	7.05 mm	4.63 mm	45.2 µM (≈ 13.1 µg/mL)	45.2 µM (≈ 13.1 µg/mL)	90.5 µM (≈ 26.3 µg/mL)	45.2 µM (≈ 13.1 µg/mL)	172 µM (≈ 50 µg/mL)	45.2 µM (≈ 13.1 µg/mL)	45.2 µM (≈ 13.1 µg/mL)	4.54%	0%
O=C1C(=O)c2ccccc2C2=C1CC1(C=CC=C1)O2	5.85 mm	7.19 mm	10.7 mm	6.14 mm	8.8 mm	18.5 mm	6.55 µM (≈ 1.64 µg/mL)	3.27 µM (≈ 0.818 µg/mL)	26.2 µM (≈ 6.56 µg/mL)	13.1 µM (≈ 3.28 µg/mL)	13.1 µM (≈ 3.28 µg/mL)	6.55 µM (≈ 1.64 µg/mL)	13.1 µM (≈ 3.28 µg/mL)	-1.63%	8%
O=C1C(=O)c2ccccc2C2=C1CC(c1ccc(F)cc1)O2 (stereo not given)	1.37 mm	8.59 mm	8.96 mm	8.12 mm	9.8 mm	1.7 mm	42.5 µM (≈ 12.5 µg/mL)	42.5 µM (≈ 12.5 µg/mL)	42.5 µM (≈ 12.5 µg/mL)	42.5 µM (≈ 12.5 µg/mL)	10.6 µM (≈ 3.12 µg/mL)	42.5 µM (≈ 12.5 µg/mL)	85 µM (≈ 25 µg/mL)	-0.202%	0%
O=C1C2=C(OC(c3ccc(Br)cc3)C2)C(=O)c2ccccc21 (stereo not given)	1.39 mm	0 mm	0 mm	9.18 mm	7.5 mm	0.49 mm	35.2 µM (≈ 12.5 µg/mL)	35.2 µM (≈ 12.5 µg/mL)	70.4 µM (≈ 25 µg/mL)	35.2 µM (≈ 12.5 µg/mL)	70.4 µM (≈ 25 µg/mL)	70.4 µM (≈ 25 µg/mL)	70.4 µM (≈ 25 µg/mL)	2.53%	0%
Cc1ccc(C2CC3=C(O2)c2ccccc2C(=O)C3=O)cc1 (stereo not given)	0.39 mm	2.26 mm	0 mm	0 mm	5.77 mm	6.44 mm	10.8 µM (≈ 3.13 µg/mL)	43.1 µM (≈ 12.5 µg/mL)	5.39 µM (≈ 1.56 µg/mL)	10.8 µM (≈ 3.13 µg/mL)	5.39 µM (≈ 1.56 µg/mL)	2.69 µM (≈ 0.781 µg/mL)	10.8 µM (≈ 3.13 µg/mL)	5.28%	0%
